Reference: US20230064034A1, “LIGHT STABLE LIQUID DISINFECTANT COMPOSITIONS” (Onyx Lotus, LLC, priority 2021, published 2023)

Test system: E. coli
Experiment: Durability test: wiped aluminum coupons, surface tested for E. coli by ASTM E-2315
Assay type: cell-based, Escherichia coli
Conditions: aluminum coupon wiped 40 times
Procedure: The durability test was designed to identify the number of times a surface can be wiped under pressure and prevent growth of pathogens on the surface after the light stable disinfectant was applied. The liquid composition contains 100 mL distilled water, 1.25 g EDTA, 0.01 g silver nitrate, and 0.5 g PVP K-30 having a 100 ppm concentration of silver. Five test solutions were evaluated: 10 mL liquid disinfectant composition, sodium hypochlorite, […] (peracetic acid), and Lysol. This 100 ppm solution of silver solution was loaded into a sprayer and sprayed onto 1×1'' sterilized aluminum or stainless-steel coupons. The aluminum coupons were wiped with a sterilized non-scratch scouring sponge or a soft cloth with a 1 kg weight on top of the non-scratch scouring sponge or a soft cloth then autoclaved. After the aluminum coupons had cooled to room temperature, the test solutions were sprayed onto the coupons. […]

OCl [Sodium hypochlorite]
reduction: 0%
